{"source": "patent EP1323421A1", "about": "(priority 2001, dated 2003)", "origin": "cited, not measured here", "key": {"plasma proteins": {"tested_on": "plasma proteins", "settings": "mainly to alpha and beta globulins"}, "[1]": {"test": "not given", "remark": "listed apart in the source"}, "[2]": {"settings": "in vivo"}, "[3]": {"test": "not given", "remark": "listed apart in the source"}, "[4]": {"settings": "intravenous single dose of about 0.3 mg"}}, "note": "Like-named read-outs stand apart in the source and are kept apart here.", "data": [{"smiles": "CO[C@]12CC[C@@]3(C[C@@H]1[C@](C)(O)C(C)(C)C)[C@H]1Cc4ccc(O)c5c4[C@@]3(CCN1CC1CC1)[C@H]2O5", "note": "[buprenorphine, 21-cyclopropyl-7.varies.-[(S)-1-hydroxy-1,2,2-trimethylpropyl]-6,14-endo-e thano-6,7,8,14-tetrahydrooripavine]", "values": [{"measurement": "Tmax", "setting": "0.4 mg sublingual dose", "value": "210.+-.40 minutes"}, {"measurement": "systemic availability", "setting": "0.4 mg sublingual dose", "value": 57.7, "unit": "%"}, {"measurement": "Tmax", "setting": "0.8 mg sublingual dose", "value": "192.+-.49 minutes"}, {"measurement": "systemic availability", "setting": "0.8 mg sublingual dose", "value": 54.1, "unit": "%"}, {"measurement": "Total plasma clearance", "setting": "conscious postoperative patients", "value": "approximately 1.28 I/minute"}, {"measurement": "hepatic extraction ratio", "setting": "in vivo", "value": "approximately 1"}, {"measurement": "Oral bioavailability", "setting": "in vivo, po", "value": "~15", "unit": "%"}, {"measurement": "mean peak plasma buprenorphine concentrations", "setting": "intramuscular second 0.3-mg dose 3 hours after the initial intravenous dose", "value": "about 3.6 ng/ml"}, {"measurement": "plasma concentrations", "setting": "intramuscular second 0.3-mg dose, after about 3 hours", "value": "about 0.4 ng/ml"}, {"measurement": "plasma concentrations", "setting": "intravenous about 0.3 mg, after about 5 minutes", "value": "about 9 ng/ml"}, {"measurement": "plasma concentrations", "setting": "intravenous about 0.3 mg, after about 3 hours", "value": "about 0.4 ng/ml"}, {"measurement": "mean peak plasma drug concentrations", "setting": "[4]", "value": "about 18 ng/ml"}, {"measurement": "time of mean peak plasma drug concentrations", "setting": "[4]", "value": "≤ 2", "unit": "min"}, {"measurement": "bound to plasma proteins", "setting": "plasma proteins", "value": "approximately 96%"}, {"measurement": "time to highest concentrations in the liver", "setting": "[1]; intramuscular administration in rats", "value": "≤ 40", "unit": "min"}, {"measurement": "time to highest concentrations in the liver", "setting": "[1]; oral administration in rats", "value": "≤ 10", "unit": "min"}, {"measurement": "analgesic potency relative to meperidine", "setting": "[2]", "value": "about 600 times"}, {"measurement": "analgesic potency relative to pentazocine", "setting": "[2]", "value": "about 200 times"}, {"measurement": "mean duration of analgesia", "setting": "[2]", "value": "six"}, {"measurement": "influence on the function of bladder or urethra", "setting": "[3]; epidural application, 4 µg/kg (Batra) or 2 µg/kg (Drenger [with dogs])", "value": "does not have a significant influence"}, {"measurement": "cases showing urinary retention", "setting": "[3]; i.v. application of 0.3 mg, patients of approx. 70 kg (4.3 µg/kg), Malinovsky", "value": "5 out of 10"}, {"measurement": "urinary retention", "setting": "[3]; sublingual application of 400µg (~ 5.7 µg/kg), case shown by Murray", "value": "urinary retention was seen"}]}]}
